Measured values: US11339171B2, “MDM2 inhibitors” (Gan & Lee Pharmaceuticals, priority 2017, dated 2022)

Key:
[1] = tested on: human osteosarcoma cell line SJSA-1; experiment: Inhibition of proliferation of human osteosarcoma cell line SJSA-1 (DAPI staining, In Cell Analyzer); conditions: Homo sapiens, SJSA-1, 72 h, read-out: IC50 (nM), inhibitory activity on proliferation of human osteosarcoma cell line SJSA-1, SJSA-1, incubated 72 h
MDM2 = biological target: T1, MDM2 (Homo sapiens, UniProt Q00987); experiment: Inhibition test of MDM2-P53 (GST-MDM2, Biotin-P53, Anti-GST-Tb, SA-XL665); assay type: binding
T1 construct: made in house
In short: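 HTRF-type assay using 4 nM GST-MDM2 (final), Biotin-P53, SA-XL665 and anti-GST-Tb in PBS with 0.1% BSA, 5 mM DTT and 1 mM AEBSF. Compounds in 5-fold serial dilutions over twelve points; incubation 90 min at 25° C with shaking before plate-reader read-out.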

T1 sequence (Q00987 whole entry): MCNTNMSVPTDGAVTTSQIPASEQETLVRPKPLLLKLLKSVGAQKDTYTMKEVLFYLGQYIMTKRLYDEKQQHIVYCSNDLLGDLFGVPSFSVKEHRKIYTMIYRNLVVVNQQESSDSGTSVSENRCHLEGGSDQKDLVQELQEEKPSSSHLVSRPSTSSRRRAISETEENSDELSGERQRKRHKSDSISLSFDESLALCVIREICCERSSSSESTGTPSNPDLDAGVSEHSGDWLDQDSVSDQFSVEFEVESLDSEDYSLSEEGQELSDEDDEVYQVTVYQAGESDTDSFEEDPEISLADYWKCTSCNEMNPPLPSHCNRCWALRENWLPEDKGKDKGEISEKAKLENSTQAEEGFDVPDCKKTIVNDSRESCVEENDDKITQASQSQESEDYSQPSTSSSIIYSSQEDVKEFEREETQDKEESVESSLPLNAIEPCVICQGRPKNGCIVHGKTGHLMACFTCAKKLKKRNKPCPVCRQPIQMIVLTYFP

| SMILES | IC50 [1] [nM] | IC50 (MDM2) [nM] |
| --- | --- | --- |
| COc1cc(C(F)(F)F)ncc1-c1nc2c(n1C(C)C)[C@@]1(C(=O)Nc3cc(Cl)ccc31)N(c1cc(Cl)cnc1C)C2=O [Example S-152, (S)-6-chloro-5′-(5-chloro-2-methylpyridin-3-yl)-3′-isopropyl-2′-(4-methoxy-6-(trifluoromethyl)pyridine-3-yl)-3′H-spiro[dihydroindole-3,4′-pyrrolo[3,4-d]imidazole]-2,6′(5′H)-dione] | 79.8 | 0.78 |
| COc1cc(OCC(F)F)ncc1-c1nc2c(n1C(C)C)[C@@]1(C(=O)Nc3cc(Cl)ccc31)N(c1cc(Cl)ccc1C)C2=O [Example S-153, (S)-6-chloro-5′-(5-chloro-2-methylphenyl)-2′-(6-(2,2-difluoroethoxy)-4-methoxypyridin-3-yl)-3′-isopropyl-3′H-spiro[dihydroindole-3,4′-pyrrolo[3,4-d]imidazole]-2,6′(5′H)-dione] | 22 | 0.49 |
| COc1cc(C)ncc1-c1nc2c(n1C(C)C)[C@@]1(C(=O)Nc3cc(Cl)ccc31)N(c1cc(Cl)ccc1C)C2=O [Example S-154, (S)-6-chloro-5′-(5-chloro-2-methylphenyl)-3′-isopropyl-2′-(4-methoxy-6-methylpyridin-3-yl)-3′H-spiro[dihydroindole-3,4′-pyrrolo[3,4-d]imidazole]-2,6′(5′H)-dione] | 22 | 0.9 |
| COc1cc(N(C)C)ncc1-c1nc2c(n1C(C)C)[C@@]1(C(=O)Nc3cc(Cl)ccc31)N(c1cc(Cl)cnc1C)C2=O [Example S-155, (S)-6-chloro-5′-(5-chloro-2-methylpyridin-3-yl)-2′-(6-(dimethylamino)-4-methoxypyridin-3-yl)-3′-isopropyl-3′H-spiro[dihydroindole-3,4′-pyrrolo[3,4-d]imidazole]-2,6′(5′H)-dione] | 14.6 | 0.95 |
| COc1nc(N(C)C)ccc1-c1nc2c(n1C(C)C)[C@@]1(C(=O)Nc3cc(Cl)ccc31)N(c1cc(Cl)ccc1C)C2=O [Example S-157, (S)-6-chloro-5′-(5-chloro-2-methylphenyl)-2′-(6-(dimethylamino)-2-methoxypyridin-3-yl)-3′-isopropyl-3′H-spiro[dihydroindole-3,4′-pyrrolo[3,4-d]imidazole]-2,6′(5′H)-dione] | 16.7 | 3.81 |
| COc1ncc(-c2nc3c(n2C(C)C)[C@@]2(C(=O)Nc4cc(Cl)ccc42)N(c2ccc(C#N)c(Cl)c2)C3=O)c(OC)n1 [Example S-158, (S)-2-chloro-4-(6-chloro-2′-(2,4-dimethoxypyrimidin-5-yl)-3′-isopropyl-2,6′-dioxo-3′,6′-dihydro-5′H-spiro[dihydroindole-3,4′-pyrrolo[3,4-d]imidazole]-5′-yl)benzonitrile] | 550 | 4.07 |
| COc1ncc(-c2nc3c(n2C(C)C)[C@@]2(C(=O)Nc4cc(Cl)ccc42)N(c2ccc(OC(F)(F)F)c(Cl)c2)C3=O)c(OC)n1 [Example S-161, (S)-6-chloro-5′-(3-chloro-4-(trifluoromethoxy)phenyl)-2′-(2,4-dimethoxypyrimidin-5-yl)-3′-isopropyl-3′H-spiro[dihydroindole-3,4′-pyrrolo[3,4-d]imidazole]-2,6′(5′H)-dione] | 557 | 8.09 |
| COc1cc(N(C)CCO)ccc1-c1nc2c(n1C(C)C)[C@@]1(C(=O)Nc3cc(Cl)ccc31)N(c1cc(Cl)ccc1C)C2=O [Example S-162, (S)-6-chloro-5′-(5-chloro-2-methylphenyl)-2′-(4-((2-hydroxyethyl)(methyl)amino)-2-methoxyphenyl)-3′-isopropyl-3′H-spiro[dihydroindole-3,4′-pyrrolo[3,4-d]imidazole]-2,6′(5′H)-dione] | 14.9 | 2.07 |
| COc1cc(OCCF)ncc1-c1nc2c(n1C(C)C)[C@@]1(C(=O)Nc3cc(Cl)ccc31)N(c1cc(Cl)ccc1C)C2=O [Example S-163, (S)-6-chloro-5′-(5-chloro-2-methylphenyl)-2′-(6-(2-fluoroethoxy)-4-methoxypyridin-3-yl)-3′-isopropyl-3′H-spiro[dihydroindole-3,4′-pyrrolo[3,4-d]imidazole]-2,6′(5′H)-dione] | 126 | 1.36 |
